# Test results published in patent publication US20190328721A1, “METHOD OF ACTIVATING DENDRITIC CELLS” (KOREA INSTITUTE OF SCIENCE AND TECHNOLOGY, priority 2018, published 2019).
# What was measured:
# [1] = system: bone marrow-derived dendritic cells (BMDCs); test: Phagocytosis of cancer cells by bone marrow-derived dendritic cells in vitro; format: cell-based, mice
# Experimental: Specifically, the present inventors prepared bone marrow-derived macrophages (BMDMs) differentiated from excised bone marrow of mice using M-CSF and bone marrow-derived dendritic cells (BMDCs) differentiated from excised bone marrow using Flt3L. The degree of differentiation was confirmed by flow cytometry analysis using antibodies specifically binding to F4/80 (BMDM marker) and CD11c (BMDC marker), respectively (FIGS. 2A and 2B).
# The prepared BMDMs and BMDCs were stained with 1 μM CellTracker Deep Red (Thermo Fisher Scientific, USA). 30 μM of Y27632 (Abcam, USA) or 30 μM of fasudil (Selleck Chemicals, USA) was added to each of 15×10^4 cells/ml of the stained macrophages and dendritic cells and incubated at 37° C. for 1 hour. As a negative control, macrophages or dendritic cells that were not incubated with Y27632 and fasudil were used.
# Bone marrow-derived macrophages or dendritic cells prepared in RPMI medium and cancer cell lines stained with 1 μM CellTracker CMFDA (Thermo Fisher Scientific, USA) were co-cultured at about 37° C. for about 2 hours. CT26.CL25, a colon cancer cell line, and B16F10-OVA, a melanoma cell line, were used as the cancer cells.
# Thereafter, the percentage of cancer cells was measured by flow cytometry, and the phagocytosis ratio of macrophages and dendritic cells against cancer cells was calculated. The results are shown in FIGS. 2C to 2F (left: cancer cell line CT26.CL25, right: cancer cell line B16F10-OVA).
# In order to more accurately analyze the phagocytosis of macrophages and dendritic cells against cancer cells according to the treatment of the ROCK inhibitor, the present inventors analyzed phagocytosis of the BMDMs and BMDCs against CT26.CL25 colon cancer cells using the pHrodo-SE dye, which changes in fluorescence depending on pH. When […], the pH of the cancer cells decreased and became red. When treated with Y27632 as described above for the above-mentioned phagocytosis response, the phagocytic activities of both the BMDMs and BMDCs against cancer cells were improved.
# The present inventors performed an experiment to confirm how long the phagocytosis of BMDMs and BMDCs against cancer cells due to the ROCK inhibitor is maintained. Specifically, BMDMs and BMDCs were pretreated with Y27632 for 1 hour, then Y27632 was removed, and immediately after 30 minutes, 1 hour, 2 hours, or 4 hours, the phagocytosis against CT26.CL25 and B16F10-Ova was measured using a flow cytometer. The other experimental conditions were the same as in Example 1-1.
# In order to confirm whether the ROCK inhibitor increases phagocytosis against cancer cells by acting on phagocytic cells (BMDMs or BMDCs) themselves, Y27632 was used to pretreat the phagocytic cells or cancer cells for 1 hour, and the phagocytic activity was analyzed using the same procedure described in Example 1-1. […]
# Phagocytic activity of bone marrow-derived dendritic cells (BMDCs) differentiated from bone marrow cells against cancer cells was analyzed by treating the BMDCs with ROCK inhibitor Y27632 (30 μM) for 1 hour and then co-cultivating with CT26.CL25 colon cancer cells pretreated with 25 μM of doxorubicin for 24 hours or B16F10-Ova malignant melanoma cells treated with 30 μM of Y27632 for 1 hour and then treated with 2.5 μM doxorubicin (Sigma-Aldrich, USA) for 24 hours by pHrodo SE (Thermo Fisher Scientific, USA) staining (BMDC:Dox-treated B16F10-Ova=1:1). As shown in FIGS. 16A to 16D, it was confirmed that the phagocytic activity of BMDCs induced by doxorubicin were increased in the Y27632-treated group compared to the control group (FIGS. 16A to 16D). […]
# IFN-γ = IFN-γ ELISA of draining lymph node cells given β-gal peptide; format: in vivo, mice
# Experimental: After draining lymph node was isolated from the tumor model animals, 5 μg/ ? of β-gal peptide (TPHPARIGL, SEQ ID NO: 1, including the naturally processed H-2 Ld limited epitope comprising amino acid residue 876 to 884 of β-galactosidase) which simulates β-gal peptide, a model antigen present in CT26.CL25 cells, or PBS were administered and the expression of IFN-γ was measured by IFN-γ ELISA kit (R&D Systems, Inc., USA).
smiles,measurement,setting,value
C[C@@H](N)[C@H]1CC[C@H](C(=O)Nc2ccncc2)CC1 [Y27632],phagocytic activity of BMDCs against doxorubicin-treated cancer cells,"[1]; 30 μM, 1 hour, CT26.CL25 (25 μM doxorubicin) or B16F10-Ova (2.5 μM doxorubicin), 24 hours",increased
same,phagocytic ability of dendritic cells against cancer cells,"[1]; 30 μM, 1 hour, co-culture with CT26.CL25 or B16F10-OVA about 2 hours",significantly increased
same,phagocytic activity of BMDCs against cancer cells (pHrodo-SE dye),[1]; CT26.CL25 colon cancer cells,improved
same,"phagocytosis by BMDCs against cancer cells, cancer cells pre-treated",[1]; cancer cells pretreated for 1 hour,not increased
same,"phagocytosis against cancer cells, BMDCs pretreated",[1]; phagocytic cells pretreated for 1 hour,increased
same,time for which BMDCs maintain phagocytosis after the pretreatment,"[1]; pretreated 1 hour, then removed, CT26.CL25 and B16F10-Ova",≤ 1 h
same,IFN-γ level in draining lymph node,IFN-γ; PBS liposome-treated group,increased
same,INF-γ expression in CD8-negative cells of draining lymph node,"IFN-γ; mouse, in vivo",no difference in INF-γ expression
same,amount of IFN-γ in CD8-positive cells of draining lymph node,"IFN-γ; mouse, in vivo",increased
